Experimental data as given in patent US9856256B2, “Pyridino[1,2-A]pyrimidone analogue used as P13K inhibitor” (CHIA TAI TIANQING PHARMACEUTICAL GROUP CO., LTD., priority 2014, dated 2018).

What was measured:
[1] = target: T1, PI3K (p110α) (Homo sapiens, UniProt P42336); experiment: In vitro enzyme activity assay, PI3K (p110α) kinase, Method I (HTRF); format: biochemical; design: recombinant full-length human PI3K p110α subunit; His-tag (N); host or cells: insect cells; conditions: 10 μM PI(4,5)P2 and 10 μM ATP), read-out: PI3K (p110α) enzyme activity_IC50
Experimental: (§1) PI3K (p110α) kinase activities of the compounds in all the examples of the present invention were tested via the following two methods, respectively.
Reaction buffer: HEPES 50 mM (pH7.0), NaN3 0.02%, BSA 0.01%. Orthovanadate 0.1 mM, and 1% DMSO.
Detection buffer: HEPES 10 mM (pH7.0), BSA 0.02%, KF 0.16 M, and EDTA 4 mM.
Enzymes for reaction: recombinant full-length human PI3K p110α subunit (molecular weight=128.4 kDa) with a His-tag at the N-terminus and unlabeled p85α subunit (molecular weight=83.6 kDa), which were expressed in insect cells.
Substrate for reaction: […] PIP2 substrate (PI(4,5)P2).
Reaction conditions: 10 μM PI(4,5)P2 and 10 μM ATP.
1. preparing the substrate in the freshly prepared reaction buffer;
(§2) 2. adding the kinase into the substrate reaction solution, and mixing gently;
3. transferring the compound dissolved in 100% DMSO into the kinase reaction solution by using Acoustic technique (Echo550; nanoliter rang), and incubating at room temperature for 10 minutes;
4. adding an appropriate concentration of ATP into the reaction system,
5. incubating at 30° C. for half an hour;
6. terminating the reaction by adding a stop solution;
7. adding the detection buffer and incubating overnight; and
8. detecting by using homogeneous time-resolved fluorescence (HTRF) method (excitation wavelength of 320 nm, measuring the ratio of the emission wavelength readings at 615 nm and 665 nm).

[2] = system: MCF-7 cells; experiment: In vitro cell activity assay (MCF-7, insulin stimulation, ELISA-One); format: cell-based; conditions: Homo sapiens, MCF7, compound 2 hours in serum-free media, then 10 μg/ml insulin 30 min
Experimental: Experimental Steps and Method Comprise:
1. MCF-7 cells were seeded at 2,5000 cells per well in a 96 well tissue culture plate in a complete media containing 10%0/FBS.
3. The cells were treated with 10 μg/ml insulin in serum-free media for 30 min.
4. During waiting period, lysis solution was prepared as below:
a) Enhancer Solution needs to be taken out from the refrigerator to be thawed.
b) Concentrated lysis solution was prepared by diluting Enhancer Solution 10-fold in 5× Lysis Buffer.
c) Lysis solution was prepared by diluting concentrated lysis solution 5-fold with ddH2O.
5. Any media were removed from wells and the wells were rinsed with PBS once quickly.
6. 50 μL of freshly prepared lysis solution were added into each well, with shaking at room temperature for 10 min.
7. After confirming that all cells get detached from wells, the lysis solution together with the cell debris was transferred to 1.5 ml tubes.
8. The tubes were vortexed several times to thoroughly mix the lysis solution and cells, and then, and then the mixture was centrifuged at 12,000 g for 10 min at 4° C.;
9. The desired number of ELISA-One microplate strips was determined. Unused strips were removed from frame and returned to storage pouch and seal. Wells for use in the assay were rinsed with 200 μL ddH2O to remove preservatives prior to use.
10. 50 μL of antibody mixture solution was added into each well. (Antibody mixture solution was prepared by mixing capture antibody reagent and detection antibody reagent equally, avoid vortexing)
11. 25 μL of lysate was added into each well of the ELISA-One microplate. The microplate was covered with adhesive seal and incubated for 1 hour at room temperature on a microplate shaker.
12. Each well was washed with 150 μL 1× wash buffer 3 times. After final wash, any remaining wash buffer was removed from wells. If necessary, leave microplate in 1× Wash Buffer for up to 30 min, until substrate mixture solution has been prepared.
13. The substrate mixture solution should be prepared when used, 100 μL of substrate mixture solution was added into each well, and then the microplate was sealed with tin foil and incubated at room temperature for 10 minutes on a microplate shaker.
14. 10 μL of stop solution was added into each well, and then mixed slightly (5-10 seconds) on a microplate shaker.
15. Corresponding ELISA-One filter set was installed to read the fluorescence signal intensity.

[3] = target: T2, mTOR (Homo sapiens, UniProt P42345); experiment: In vitro enzyme activity assay, mTOR kinase (32P-ATP, P81 filter-binding); format: biochemical; conditions: 4EBPI substrate, 10 μM ATP; read-out: mTOR enzyme activity_IC50
T2 construct: recombinant human mTOR fragment (amino acid 1360-2549, molecular weight=163.9 kDa); GST-tag (N); host or cells: insect cells
Experimental: mTOR kinase activities of the compounds in all the examples of the present invention were tested via the following method.
Reaction buffer: 20 mM Hepes (pH 7.5), 10 mM MgCl2, 2 mM MnCl2, 1 mM EGTA, 0.02% Brij35, 0.02 mg/mL BSA, 0.1 mM Na3VO4, 2 mM DTT, and 2% DMSO.
Enzyme for reaction: recombinant human mTOR fragment (amino acid 1360-2549, molecular weight=163.9 kDa) with a GST-tag at the N-terminus, which was expressed in insect cells.
Substrate for reaction: recombinant full-length human 4EBPI (molecular weight=13.6 kDa) with a His-tag at the N-terminus, which was expressed in bacteria.
Reaction conditions: […] 4EBPI and 10 μM ATP.
1. adding the reaction substrate and other reaction factors into the freshly prepared reaction buffer;
as §2
3. transferring the compound dissolved in 100% DMSO into the kinase reaction solution by using Acoustic technique (Echo550; nanoliter rang), and incubating at room temperature for 20 minutes;
4. adding an appropriate concentration of ^32P-ATP into the reaction system;
5. incubating at room temperature for 2 hours;
6. detecting the kinase activity by using P81 filter-binding method.

[4] = target: T1, PI3K (p110α); experiment: In vitro enzyme activity assay, PI3K (p110α) kinase, Method II (ADP-Glo assay); format: biochemical; design: purchased Millipore 14-602-K; conditions: read-out: PI3K (p110α) enzyme activity_IC50
Experimental: as §1
Dilution of the Compound:
The compound to be tested was diluted with a 3-fold concentration gradient, and 10 concentrations (from 10000 nM to 0.5 nM) were obtained in total.
50 nL of the compound was transferred to a reaction plate (PerkinElmer #6007299) and 3 μL of enzyme/substrate mixture (0.33 nM PI3Kalpha, Millipore #14-602-K/166.5 μM PIP2) was added. After 20 min incubation, 2 uL of ATP solution (100 uM) was added to initiate the reaction. After reacting for 2 hours at room temperature, 5 μL of ADP-Glo reagent was added to terminate the kinase reaction. Then the mixture was incubated at room temperature for 60 min to completely digest the remaining unreacted ATP, 10 uL of kinase detection reagent was added, and after 40 min incubation at room temperature, […] was readed on an Envision. PIP2, ATP, ADP-Glo and the kinase detection reagent were all from ADP-Glo kinase assay kit (Promega #V1792).
IC50 was calculated using standard 4-parameter fit method (Model205, XL-fit, iDBS).

T1 sequence (P42336 whole entry): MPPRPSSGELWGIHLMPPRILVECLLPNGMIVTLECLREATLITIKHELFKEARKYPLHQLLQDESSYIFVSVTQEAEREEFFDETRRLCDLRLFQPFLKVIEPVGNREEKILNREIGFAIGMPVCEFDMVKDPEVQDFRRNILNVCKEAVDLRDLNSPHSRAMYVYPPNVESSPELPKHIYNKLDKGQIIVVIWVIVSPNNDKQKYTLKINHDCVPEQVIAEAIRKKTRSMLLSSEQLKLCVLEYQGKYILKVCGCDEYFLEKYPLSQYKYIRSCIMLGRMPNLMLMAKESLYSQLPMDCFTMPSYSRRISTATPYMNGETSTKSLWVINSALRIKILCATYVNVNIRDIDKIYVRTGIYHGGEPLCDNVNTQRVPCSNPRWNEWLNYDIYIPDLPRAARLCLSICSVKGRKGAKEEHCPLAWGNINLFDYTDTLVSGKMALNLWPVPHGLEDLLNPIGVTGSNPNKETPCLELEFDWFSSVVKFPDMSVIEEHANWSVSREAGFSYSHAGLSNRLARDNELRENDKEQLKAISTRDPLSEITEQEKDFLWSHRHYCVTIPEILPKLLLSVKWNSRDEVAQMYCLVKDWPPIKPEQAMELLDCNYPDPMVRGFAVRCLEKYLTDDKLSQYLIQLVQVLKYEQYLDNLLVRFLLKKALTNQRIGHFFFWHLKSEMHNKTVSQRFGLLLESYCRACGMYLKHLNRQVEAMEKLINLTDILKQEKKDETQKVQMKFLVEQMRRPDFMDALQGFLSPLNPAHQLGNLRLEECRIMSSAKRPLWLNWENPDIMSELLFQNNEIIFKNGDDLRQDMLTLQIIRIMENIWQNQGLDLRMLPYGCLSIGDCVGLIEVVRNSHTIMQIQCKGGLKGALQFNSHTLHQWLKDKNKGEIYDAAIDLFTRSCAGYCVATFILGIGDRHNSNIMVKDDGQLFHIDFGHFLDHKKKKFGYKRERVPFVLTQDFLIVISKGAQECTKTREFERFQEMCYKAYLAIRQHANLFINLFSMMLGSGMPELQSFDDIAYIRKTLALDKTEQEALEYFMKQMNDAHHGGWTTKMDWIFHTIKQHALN
T1 sequence (P27986 whole entry partner): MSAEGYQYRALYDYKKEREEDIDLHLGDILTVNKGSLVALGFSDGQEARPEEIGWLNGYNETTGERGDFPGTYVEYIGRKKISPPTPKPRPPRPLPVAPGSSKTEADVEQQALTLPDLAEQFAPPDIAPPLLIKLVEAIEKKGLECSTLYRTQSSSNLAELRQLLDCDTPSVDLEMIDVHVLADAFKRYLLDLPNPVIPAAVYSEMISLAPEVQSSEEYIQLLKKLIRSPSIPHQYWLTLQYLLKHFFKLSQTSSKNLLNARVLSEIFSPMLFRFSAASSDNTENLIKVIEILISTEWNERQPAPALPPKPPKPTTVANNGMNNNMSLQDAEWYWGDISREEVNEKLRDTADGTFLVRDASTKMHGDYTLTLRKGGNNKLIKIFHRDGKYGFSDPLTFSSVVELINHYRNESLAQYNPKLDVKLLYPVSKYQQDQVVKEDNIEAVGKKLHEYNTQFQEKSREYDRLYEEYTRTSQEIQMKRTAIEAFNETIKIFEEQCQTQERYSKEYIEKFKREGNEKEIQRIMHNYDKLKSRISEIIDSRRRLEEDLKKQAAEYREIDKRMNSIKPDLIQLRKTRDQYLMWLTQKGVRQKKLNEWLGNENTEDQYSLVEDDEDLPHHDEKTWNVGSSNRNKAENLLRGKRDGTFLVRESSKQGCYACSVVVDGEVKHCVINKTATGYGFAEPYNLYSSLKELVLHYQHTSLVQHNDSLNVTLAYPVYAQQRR
T2 sequence (P42345 1360-2549): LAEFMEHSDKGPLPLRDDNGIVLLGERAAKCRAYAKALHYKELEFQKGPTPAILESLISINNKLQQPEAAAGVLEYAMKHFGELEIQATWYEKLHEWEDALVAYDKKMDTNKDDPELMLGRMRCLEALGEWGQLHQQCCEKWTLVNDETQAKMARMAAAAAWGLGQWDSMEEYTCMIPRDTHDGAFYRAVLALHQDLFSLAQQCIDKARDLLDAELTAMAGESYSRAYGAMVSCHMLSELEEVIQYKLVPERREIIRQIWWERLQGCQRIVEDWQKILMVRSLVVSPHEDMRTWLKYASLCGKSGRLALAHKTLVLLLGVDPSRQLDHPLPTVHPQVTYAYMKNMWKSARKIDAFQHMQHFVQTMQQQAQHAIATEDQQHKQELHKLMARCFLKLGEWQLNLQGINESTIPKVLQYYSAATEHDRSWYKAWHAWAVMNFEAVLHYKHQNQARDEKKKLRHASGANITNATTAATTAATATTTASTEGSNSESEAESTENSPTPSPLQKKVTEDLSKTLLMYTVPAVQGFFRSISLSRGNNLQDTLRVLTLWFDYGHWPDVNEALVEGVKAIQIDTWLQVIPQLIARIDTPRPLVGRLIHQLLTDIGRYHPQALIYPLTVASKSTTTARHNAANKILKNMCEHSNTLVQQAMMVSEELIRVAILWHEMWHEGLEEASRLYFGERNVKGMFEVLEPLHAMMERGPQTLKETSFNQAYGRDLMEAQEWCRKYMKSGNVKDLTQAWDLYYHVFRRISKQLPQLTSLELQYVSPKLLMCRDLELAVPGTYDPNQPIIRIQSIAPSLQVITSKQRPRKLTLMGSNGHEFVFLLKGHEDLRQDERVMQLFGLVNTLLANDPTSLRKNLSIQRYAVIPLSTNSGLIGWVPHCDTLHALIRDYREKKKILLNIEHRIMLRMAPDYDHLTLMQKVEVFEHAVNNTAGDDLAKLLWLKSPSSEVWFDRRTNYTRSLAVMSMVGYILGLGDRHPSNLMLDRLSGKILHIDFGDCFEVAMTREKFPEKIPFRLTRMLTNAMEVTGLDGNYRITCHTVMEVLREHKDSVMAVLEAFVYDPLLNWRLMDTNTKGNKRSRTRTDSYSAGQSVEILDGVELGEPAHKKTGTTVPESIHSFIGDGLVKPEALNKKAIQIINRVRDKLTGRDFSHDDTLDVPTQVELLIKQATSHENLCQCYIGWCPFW

Row | SMILES | IC50 [1] [nM] | IC50 [2] [nM] | IC50 [3] [nM] | IC50 [4] [nM]
1 | COc1ncc(-c2ccc3ncc(OCCN4CCC(F)(F)CC4)c(=O)n3c2)cc1NS(=O)(=O)c1sc(C)nc1C [Compound 1, N-(5-(3-(2-(4,4-difluoro-1-piperidinyl)ethoxy)-4-oxo-pyrido[1,2-a]pyrimidin-7-yl]-2-methoxypyridin-3-yl]-2,4-dimethylthiazole-5-sulfonamide] | ≤ 1 | ≤ 50 | 50 to 200 | 
2 | COc1ncc(-c2ccc3ncc(OCCN4CCC(F)CC4)c(=O)n3c2)cc1NS(=O)(=O)c1sc(C)nc1C [Compound 2] | ≤ 1 | ≤ 50 | 50 to 200 | 
3 | COc1ncc(-c2ccc3ncc(OCCN4CCNCC4)c(=O)n3c2)cc1NS(=O)(=O)c1sc(C)nc1C [Compound 3] | ≤ 1 | > 250 | > 200 | 
4 | CNCCOc1cnc2ccc(-c3cnc(OC)c(NS(=O)(=O)c4sc(C)nc4C)c3)cn2c1=O [Compound 6] | ≤ 1 |  | > 200 | 
5 | COc1ncc(-c2ccc3ncc(OCCN4CCOCC4)c(=O)n3c2)cc1NS(=O)(=O)c1ccc(C)cc1C [Compound 7, 2,4-Dimethyl-N-(2-methoxy-5-(3-(2-morpholinoethoxy)-4-oxo-4H-pyrido[1,2-a]pyrimidin-4-one-7-yl)pyridin-3-yl)benzenesulfonamide] | ≤ 1 | ≤ 50 | > 200 | 
6 | COc1ncc(-c2ccc3ncc(OCCN4CCOCC4)c(=O)n3c2)cc1NS(=O)(=O)c1ccc(F)cc1C [Compound 8] | ≤ 1 | 50 to 100 | > 200 | 
7 | COc1ncc(-c2ccc3ncc(OCCN4CCOCC4)c(=O)n3c2)cc1NS(=O)(=O)c1ccc(F)cc1F [Compound 13] | ≤ 1 |  | > 200 | 
8 | COc1ncc(-c2ccc3ncc(OCCN(C)C)c(=O)n3c2)cc1NS(=O)(=O)c1ccc(F)cc1Cl [Compound 25] |  | ≤ 50 | > 200 | ≤ 1
9 | COc1ncc(-c2ccc3ncc(OCCN4CCCC4)c(=O)n3c2)cc1NS(=O)(=O)c1ccc(F)cc1Cl [Compound 27] |  | 50 to 100 | 50 to 200 | ≤ 1
10 | COc1ncc(-c2ccc3ncc(OCC4(N)CC4)c(=O)n3c2)cc1NS(=O)(=O)c1ccc(F)cc1Cl [Compound 32] |  | 50 to 100 | 50 to 200 | ≤ 1
11 | COc1ncc(-c2ccc3ncc(OC4CCNCC4)c(=O)n3c2)cc1NS(=O)(=O)c1ccc(F)cc1F [Compound 41, 2,4-Difluoro-N-(2-methoxy-5-(4-oxo-3-(piperidin-4-yloxy)-4H-pyrido[1,2-a]pyrimidin-7-yl)pyridin-3-yl)benzenesulfonamide] | 1 to 50 |  | > 200 | 
12 | COc1ncc(-c2ccc3ncc(OC4CCNC4)c(=O)n3c2)cc1NS(=O)(=O)c1ccc(F)cc1F (centres unmarked) [Compound 44] | ≤ 1 |  | > 200 | 
13 | COc1ncc(-c2ccc3ncc(OCC(C)(C)N4CCOCC4)c(=O)n3c2)cc1NS(=O)(=O)c1ccc(F)cc1Cl [Compound 70] |  | 100 to 250 |  | 1 to 50
14 | COc1ncc(-c2ccc3ncc(OCCN4CCNCC4)c(=O)n3c2)cc1NS(=O)(=O)c1ccc(F)cc1Cl [Compound 75] |  | > 250 |  | ≤ 1
15 | COc1ncc(-c2ccc3ncc(OCC4CCNC4)c(=O)n3c2)cc1NS(=O)(=O)c1ccc(F)cc1Cl (centres unmarked) [Compound 77] |  | > 250 |  | 1 to 50
16 | COc1ncc(-c2ccc3ncc(OCC4CCCN4)c(=O)n3c2)cc1NS(=O)(=O)c1ccc(F)cc1Cl (centres unmarked) [Compound 78] |  | > 250 |  | 1 to 50
17 | COc1ncc(-c2ccc3ncc(OCCN4CCC(O)CC4)c(=O)n3c2)cc1NS(=O)(=O)c1ccc(F)cc1Cl [Compound 79] |  | 100 to 250 |  | ≤ 1
18 | COc1ncc(-c2ccc3ncc(OCCNCCO)c(=O)n3c2)cc1NS(=O)(=O)c1ccc(F)cc1Cl [Compound 81] |  | > 250 |  | ≤ 1
19 | COc1ncc(-c2ccc3ncc(OCCN4CCC(C)(O)CC4)c(=O)n3c2)cc1NS(=O)(=O)c1ccc(F)cc1Cl [Compound 82] |  | 100 to 250 |  | ≤ 1
20 | COc1ncc(-c2ccc3ncc(OC4CCN(C)C4)c(=O)n3c2)cc1NS(=O)(=O)c1ccc(F)cc1Cl (centres unmarked) [Compound 85] |  | 50 to 100 |  | 1 to 50
21 | COc1ncc(-c2ccc3ncc(OCCN4CCOCC4C)c(=O)n3c2)cc1NS(=O)(=O)c1ccc(F)cc1Cl (centres unmarked) [Compound 88] |  | 50 to 100 |  | ≤ 1
22 | COc1ncc(-c2ccc3ncc(OCCN4CCOC(C)C4)c(=O)n3c2)cc1NS(=O)(=O)c1ccc(F)cc1Cl (centres unmarked) [Compound 89] |  | ≤ 50 |  | ≤ 1
23 | COc1ncc(-c2ccc3ncc(OCCN4CCN(C(C)=O)CC4)c(=O)n3c2)cc1NS(=O)(=O)c1ccc(F)cc1Cl [Compound 90] |  | 50 to 100 |  | ≤ 1
24 | COCCN(CCOc1cnc2ccc(-c3cnc(OC)c(NS(=O)(=O)c4ccc(F)cc4Cl)c3)cn2c1=O)CC(F)(F)F [Compound 95] |  | ≤ 50 |  | 1 to 50
